We go through two compounds from patent US4327097A, “Novel penicillins” (Toyama Chemical Co., Ltd., priority 1974, dated 1982).

In brackets after ≈: the same amount, converted by molar mass.

Assay [1] deals with Pseudomonas aeruginosa. As to the kind of experiment: MIC against clinical isolates. Format: cell-based. The conditions noted are these: unit assumed.
In assay [2] the test system is β-lactamase, Pseudomonas aeruginosa GN 238. As to the kind of experiment: Resistant activity against β-lactamase, iodometric assay. In kind it is biochemical. The conditions noted are these: β-lactamase from Pseudomonas aeruginosa GN 238; Potassium Penicillin G = 100. The method, then: (3) Resistant activity against β-lactamase, Pseudomonas aerugionsa GN 238:
The resistant activity of each compound against β-lactamase was measured in the manner described below.
β-Lactamase was prepared from Pseudomonas aeruginosa GN 238. This microorganism was cultured in 100 ml of a medium containing 2 g of yeast extract, 10 g of polypeptone, 2 g of glucose, 7 g of disodium hydrogen phosphate, 2 g of potassium dihydrogen phosphate, 1.2 g of ammonium sulfate and 0.4 g of magnesium sulfate, per liter, in a 500-ml Erlenmeyer flask for 6 hrs. at 37° C. with shaking. The resulting cells were collected by centrifugation (5,000 r.p.m.×10 min.), washed three times with 0.1 M phosphate buffer (pH 7.0). Subsequently, the cells were subjected to sonication (20 KHz, 20 min.) and then centrifuged at 15,000 r.p.m. for 60 min. By using the supernatant of enzyme fluid, the resistance of each compound against β-lactamase was determined by the iodometric assay method. Each numeral shown in Table 7 is a relative activity value calculated by assuming as 100 the activity of the control Potassium Penicillin G.

For assay [3], the system named is Proteus vulgaris 3027. Description: MIC, plate method, standard strains. In kind it is cell-based. The conditions noted are these: Table 3, standard strain; unit assumed. The essentials: (§1)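 Heart infusion agar, pH 7.4, plate method. Inoculum: 10^4 cells/plate (10^6 cells/ml). Read-out: MIC.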
The subject of assay [4] is Escherichia coli NIHJ. As to the kind of experiment: MIC, plate method, standard strains. Format: cell-based. To be noted: Table 3, standard strain; unit assumed. The essentials: as §1
Assay [5] concerns Shigella flexneri. As to the kind of experiment: MIC against clinical isolates. Format: cell-based. The conditions noted are these: Table 5-5, clinical isolate; unit assumed. The method, then: (§2) The minimum inhibitory concentration (MIC) was determined by the plate method disclosed in "Chemotherapy" (Japan), Vol. 16, (1968), pages 98-99. The culture medium used was a Heart infusion agar (pH 7.4). The number of the cells per plate used in the inoculum was 10^4 (10^6 cells/ml).
(§3) MIC was determined in the same manner as in the preceding paragraph (1).

The test system of assay [6] is Shigella sonnei. Description: MIC against clinical isolates. In kind it is cell-based. To be noted: Table 5-5, clinical isolate; unit assumed. As for the experimental part:
as §2, §3

Assay [7] has as its system Escherichia coli. Description: MIC against clinical isolates. The conditions noted are these: Table 5-2, clinical isolate; unit assumed. In kind it is cell-based.
Assay [8] relates to Salmonella typhi-murium. As to the kind of experiment: MIC against clinical isolates. Format: cell-based. To be noted: Table 5-5, clinical isolate; unit assumed.
Assay [9] relates to Proteus vulgaris. Description: MIC against clinical isolates. In kind it is cell-based. The conditions noted are these: Table 5-6, clinical isolate; unit assumed.
Assay [10] relates to Staphylococcus aureus. Description: MIC against clinical isolates. In kind it is cell-based. The conditions noted are these: Table 5-1, clinical isolate; unit assumed.
In assay [11] the test system is Proteus mirabilis. Description: MIC against clinical isolates. Format: cell-based. The conditions noted are these: Table 5-6, clinical isolate; unit assumed.
In assay [12] the test system is Klebsiella pneumoniae. Description: MIC against clinical isolates. Format: cell-based. The conditions noted are these: Table 5-4, clinical isolate; unit assumed.
The test system of assay [13] is Klebsiella pneumoniae. Description: MIC, plate method, standard strains. In kind it is cell-based. To be noted: Table 3, standard strain; unit assumed. The method in brief:
as §1

The subject of assay [14] is Staphylococcus aureus 209p. As to the kind of experiment: MIC, plate method, standard strains. In kind it is cell-based. To be noted: Table 3, standard strain, Heart infusion agar pH 7.4; unit assumed. The method in brief:
as §1

Assay [15] deals with Proteus morganii. Description: MIC against clinical isolates. Format: cell-based. The conditions noted are these: Table 5-6, clinical isolate; unit assumed.

`CCCCCN1CCN(C(=O)NC(C(=O)NC2C(=O)N3C2SC(C)(C)C3C(=O)O)c2ccccc2)C(=O)C1=O` (single isomer, unassigned) [Compound 45] came in with an MIC Pseudomonas aeruginosa GN 1035 in [1] (Table 5-3, clinical isolate) of 50 µg/mL (≈ 89.3 µM). In [1] (Table 5-4, clinical isolate), this compound returned an MIC Pseudomonas neruginosa S-3 of 50 µg/mL (≈ 89.3 µM). Moreover, the “Relative activity (%), resistant activity against β-lactamase” value in assay [2] worked out at 16%. Also, the MIC Proteus vulgaris 3027 in assay [3] came out at 0.4 µg/mL (≈ 0.715 µM). In addition, the MIC Esche--richin coil NIHJ in [4] was less than 0.1 µg/mL. Also, in [5], the MIC Shigella flexneri JS 11215 was 25 µg/mL (≈ 44.7 µM) and the MIC Shigella flexneri JS 11839 turned out to be 1.57 µg/mL (≈ 2.81 µM). In [6], this compound yielded an MIC Shigella sonnei JS 11232 of 25 µg/mL (≈ 44.7 µM) and an MIC Shigella sonnei JS 11755 of 1.57 µg/mL (≈ 2.81 µM). In addition, in [7], the MIC Escherichia coli GN 3452 worked out at 1.57 µg/mL (≈ 2.81 µM), the MIC Escherichia coli GN 3481 was 1.57 µg/mL (≈ 2.81 µM), the MIC Escherichia coli GN 3611 is more than 200 µg/mL and the MIC Escherichia coli K-2 is 1.57 µg/mL (≈ 2.81 µM). Also, the MIC Escherichia coli K-3 in [7] came to 200 µg/mL (≈ 357 µM). Besides, the MIC Salmonella typhi-murium SL 2136 in assay [8] is 200 µg/mL (≈ 357 µM). Further, the MIC Proteus vulgaris in [9] is less than 0.4 µg/mL. In assay [10], the MIC Staphylococcus aureus F-2 stood at 1.57 µg/mL (≈ 2.81 µM), the MIC Staphylococcus aureus F-3 was 1.57 µg/mL (≈ 2.81 µM) and the MIC Staphylococcus aureus F-5 is more than 200 µg/mL. Moreover, in assay [11], the MIC Proteus mirabilis was less than 0.4 µg/mL. In addition, the MIC Klebsiella pneumoniae GN 917 in [12] is 1.57 µg/mL (≈ 2.81 µM).
On to `CCCCN1CCN(C(=O)NC(C(=O)NC2C(=O)N3C2SC(C)(C)C3C(=O)O)c2ccccc2)C(=O)C1=O` (single isomer, unassigned) [Compound 39], for which the “Relative activity (%), resistant activity against β-lactamase” value in assay [2] is recorded as 15%. Besides, in [13], the MIC Klebsiella pneumoniae was 1.57 µg/mL (≈ 2.88 µM). This compound registered an MIC Proteus vulgaris 3027 in [3] of 0.4 µg/mL (≈ 0.733 µM). The MIC Staphylococcus aureus 209p in assay [14] stood at 0.4 µg/mL (≈ 0.733 µM). The MIC Esche--richin coil NIHJ in assay [4] was less than 0.1 µg/mL. In assay [5], this compound came in with an MIC Shigella flexneri JS 11215 of 25 µg/mL (≈ 45.8 µM) and an MIC Shigella flexneri JS 11839 of 0.79 µg/mL (≈ 1.45 µM). Besides, in [6], the MIC Shigella sonnei JS 11232 was determined as 25 µg/mL (≈ 45.8 µM) and the MIC Shigella sonnei JS 11755 was 1.57 µg/mL (≈ 2.88 µM). The compound further yielded an MIC Proteus morganii in assay [15] of less than 0.4 µg/mL. For the same compound, in assay [7], the MIC Escherichia coli GN 3481 came to 1.57 µg/mL (≈ 2.88 µM), the MIC Escherichia coli GN 3611 was more than 200 µg/mL, the MIC Escherichia coli K-1 was 1.57 µg/mL (≈ 2.88 µM) and the MIC Escherichia coli K-2 is 1.57 µg/mL (≈ 2.88 µM). The compound also gave an MIC Escherichia coli K-3 in assay [7] of more than 200 µg/mL. In [8], the MIC Salmonella typhi-murium SL 2136 was found to be 100 µg/mL (≈ 183 µM). Also, in [9], the MIC Proteus vulgaris was less than 0.4 µg/mL. In [10], this compound displayed an MIC Staphylococcus aureus F-2 of 1.57 µg/mL (≈ 2.88 µM), an MIC Staphylococcus aureus F-3 of 1.57 µg/mL (≈ 2.88 µM), an MIC Staphylococcus aureus F-5 of more than 200 µg/mL and an MIC Staphylococcus aureus MS 8588 of 1.57 µg/mL (≈ 2.88 µM). For the same compound, the MIC Staphylococcus aureus MS 8596 in [10] stood at 1.57 µg/mL (≈ 2.88 µM). Moreover, the MIC Proteus mirabilis in assay [11] was less than 0.4 µg/mL. This compound also gave an MIC Klebsiella pneumoniae GN 917 in [12] of 1.57 µg/mL (≈ 2.88 µM).
